{"source": "patent US8629251B2", "about": "“Specific detection and quantification of phosphatidic acid using an Arabidopsis trigalactosyldiacylglycerol-4 (TGD4) protein” (Board of Trustees of Michigan State University, priority 2008, dated 2014)", "key": {"[1]": {"target": "T1, Arabidopsis TGD4, DsRED-ΔTGD4-His (hydrophobic region 287D-309F deleted, SEQ ID NO:133) (Arabidopsis thaliana, UniProt Q9M903, DEL287-309)", "T1 construct": "b369 deletes nt 859-924 (22 codons)", "T1 sequence (Q9M903 other isoform, or with tags, fused parts or gaps DEL287-309)": "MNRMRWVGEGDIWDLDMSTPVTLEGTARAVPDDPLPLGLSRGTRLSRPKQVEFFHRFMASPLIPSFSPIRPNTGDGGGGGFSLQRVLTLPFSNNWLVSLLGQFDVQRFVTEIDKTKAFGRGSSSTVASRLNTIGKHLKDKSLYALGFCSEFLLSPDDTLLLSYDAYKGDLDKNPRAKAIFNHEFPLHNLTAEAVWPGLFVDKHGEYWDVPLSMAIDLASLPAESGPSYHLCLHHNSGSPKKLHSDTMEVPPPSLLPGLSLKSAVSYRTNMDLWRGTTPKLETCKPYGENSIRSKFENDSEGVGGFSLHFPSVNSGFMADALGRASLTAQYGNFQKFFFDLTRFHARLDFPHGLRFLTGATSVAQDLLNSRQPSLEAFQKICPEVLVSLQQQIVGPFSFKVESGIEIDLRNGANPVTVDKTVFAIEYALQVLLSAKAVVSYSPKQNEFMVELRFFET", "test": "Liposome association assay, DsRED-ΔTGD4-His", "format": "binding", "conditions": "dioleoyl-PtdOH/dioleoyl-PtdCho liposomes, 0 to 80% PtdOH, FIG. 19B", "procedure": "Liposome Association Assay:\nThe liposome association assay was adapted from (Awai et al., 2006, Lu and Benning, 2009) with minor modifications. Dioleoyl-PtdCho and PtdOH with different acyl chain lengths and desaturation levels were used for making liposomes. In other liposomes 1-palmitoyl-2-(12-((7-nitro-2-1,3-benzoxadiazol-4-yl)amino)dodecanoyl)-sn-glycero-3-phosphate (NBD-PtdOH; Avanti, Alabaster, Ala.) was used. The lipids were mixed at indicated ratios to give a total lipid amount of 250 μg. The lipids were dried under a stream of nitrogen, resuspended in 0.5 ml TBS buffer with 0.2 M choline chloride and hydrated at 37° C. for 1 hour followed by vigorous vortexing for 2 minutes. The resulting multi-lamellar vesicles were centrifuged at 13,000×g for 10 minutes and then washed once with TBS buffer containing 0.2 M choline chloride. The liposomes were resuspended into 100 μl TBS buffer with 0.2 M choline chloride and incubated with 2 μg purified DsRED-TGD4-His protein and its derivatives. The protein liposome mixture was incubated on ice for 30 minutes followed by centrifugation at 13,000×g for 10 minutes and two washes with 500 μl TBS containing 0.2 M choline chloride. The resulting protein-liposome pellet was resuspended in 20 μl 2× Laemmli buffer (Laemmli, 1970) and processed by SDS-PAGE (Shapiro and Maizel, 1969)."}, "[2]": {"target": "Arabidopsis TGD2, DsRed-TGD2C D1 (Δ221-250, SEQ ID NO:43) (Arabidopsis thaliana, UniProt Q9LTR2, DEL221-250)", "sequence (Q9LTR2 other isoform, or with tags, fused parts or gaps DEL221-250)": "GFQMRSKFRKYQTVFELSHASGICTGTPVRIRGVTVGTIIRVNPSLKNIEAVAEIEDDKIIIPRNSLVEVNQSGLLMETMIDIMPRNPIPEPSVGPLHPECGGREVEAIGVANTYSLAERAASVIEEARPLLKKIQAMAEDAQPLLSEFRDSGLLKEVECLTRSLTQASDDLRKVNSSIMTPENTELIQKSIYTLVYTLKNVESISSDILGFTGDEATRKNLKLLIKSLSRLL", "test": "Liposome-association assay, TGD2C D1 (Δ221-250)", "format": "binding", "conditions": "FIG. 3C", "procedure": "(§1) The liposome association assay was performed as previously reported. (31). Briefly, lipids (dioleoyl-phosphatidylcholine, DOPC or dioleoyl-PA, DOPA) were incubated in TBS (50 mM Tris-HCl, pH 7; 0.1 M NaCl) at 37° C. for an hour followed by vigorous vortexing for 5 min. The liposomes were precipitated at 20,000 g and washed twice with ice-cold TBS.\n(§2) Liposomes (200 μg) were mixed with purified DsRed-TGD2 fusion protein and TBS to make a final 100 μL solution. The mixture was incubated at 30° C. for 30 min and washed twice with ice-cold TBS by centrifugation at 20,000 g at 4° C. The liposome pellet mixed with sample buffer was analyzed by SDS-PAGE (28). Immuno-detection of the His-tagged protein was accomplished using the above mentioned Penta-His antibody at 1:15,000 and the anti mouse antibody at 1:75,000 dilution.\n(§3) The protein band was visualized by chemiluminescent detection kit from Sigma. The autoradiography film was scanned, distinct protein bands were quantified using computer software Multi Gauge V3.0 (Fujifilm USA, Valhalla, N.Y.) and resulted data were plotted and analyzed by OriginPro8 (Origin lab corporation, Northampton, Mass.)."}, "[3]": {"target": "T2, Arabidopsis TGD2, DsRed-TGD2C minimal domain (DR-25, TGD2C T8, residues 201-225, SEQ ID NO:12) (Arabidopsis thaliana, UniProt Q9LTR2)", "T2 sequence (Q9LTR2 201-225)": "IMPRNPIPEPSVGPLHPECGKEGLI", "test": "Liposome-association assay, minimal domain DR-25", "format": "binding", "procedure": "as §1, §2, §3"}, "[4]": {"target": "T3, Arabidopsis TGD2, DsRed-TGD2C with deletion of the 25-mer minimal domain (DR-Δ25, residues 201-225 deleted) (Arabidopsis thaliana, UniProt Q9LTR2, DEL201-225)", "T3 construct": "made in house; host or cells: Escherichia coli BL21 (DE3)", "T3 sequence (Q9LTR2 other isoform, or with tags, fused parts or gaps DEL201-225)": "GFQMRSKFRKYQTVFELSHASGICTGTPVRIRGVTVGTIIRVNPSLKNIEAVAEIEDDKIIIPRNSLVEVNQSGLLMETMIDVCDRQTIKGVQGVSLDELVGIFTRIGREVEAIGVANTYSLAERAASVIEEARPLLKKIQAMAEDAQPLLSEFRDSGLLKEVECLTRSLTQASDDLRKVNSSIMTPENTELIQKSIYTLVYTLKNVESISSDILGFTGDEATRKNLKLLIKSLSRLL", "test": "Liposome-association assay, minimal domain deletion DR-Δ25", "format": "binding", "procedure": "as §1, §2, §3"}, "[5]": {"system": "DsRed protein (Discosoma sp. red fluorescent protein)", "test": "Liposome-association assay, DsRed control", "format": "binding", "conditions": "FIG. 3B", "procedure": "as §1, §2, §3"}, "[6]": {"target": "Arabidopsis TGD2, DsRed fusion of the 25-mer minimal domain (residues 201-225, SEQ ID NO:12), K221A (Arabidopsis thaliana, UniProt Q9LTR2, K221A)", "sequence (Q9LTR2 201-225 K221A)": "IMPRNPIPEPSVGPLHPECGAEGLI", "test": "Liposome-association assay, point mutant K221A of the minimal domain", "format": "binding", "conditions": "100% PA liposomes, FIG. 4C", "procedure": "Some reports have identified that TGD2 PA-binding regions involve basic amino acids and/or tryptophan residues (10). […] Based on sequence similarity of TGD2 to its closely related homologs in plants and green algae, several charged and/or conserved amino acids were picked as potential interesting residues in the 25-mer minimal domain for possibly mediating interactions with PA. An alanine screen was then performed to evaluate these residues within a minimal PA binding region of TGD2 (i.e., for example, SEQ ID NO:12). Point mutations were generated in the 25-mer minimal domain and fused with DsRed to test PA binding by liposome-association assay using 100% PA liposomes.\nThe liposome association assay was performed as previously reported. (31). […]\nLiposomes (200 μg) were mixed with purified DsRed-TGD2 fusion protein and TBS to make a final 100 μL solution. […] The liposome pellet mixed with sample buffer was analyzed by SDS-PAGE (28). […]\nas §3"}, "[7]": {"target": "T4, Arabidopsis TGD2, DsRed-TGD2C T8 (residues 201-225, SEQ ID NO:12) (Arabidopsis thaliana, UniProt Q9LTR2)", "T4 sequence (Q9LTR2 201-225)": "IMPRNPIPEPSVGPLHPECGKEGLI", "test": "Protein-lipid overlay assay, minimal domain", "format": "binding", "conditions": "FIG. 4B; compared to DR-WT", "procedure": "Membrane lipid strips were purchased from Echelon Biosciences (Salt Lake City, Utah). The strips were first blocked with 3% bovine serum albumin in TBST (10 mM Tris-HCl, pH 8.0, 150 mM NaCl, and 0.25% Tween-20) for two hours and incubated in 0.5 μg/mL DsRed-TGD2 fusion protein solution in the blocking buffer at 4° C. overnight. The strips were washed 10 min for 3 times with TBST the next day and soaked in 3% bovine serum albumin in TBST with a Penta-His mouse monoclonal antibody (Sigma-Aldrich, St. Louis, Mo.) at 1:2,000 dilution at 4° C. overnight. The strips were washed twice with TBST and soaked in 3% bovine serum albumin in TBST with horseradish peroxidase-conjugated anti mouse antibody (Bio-Rad, Hercules, Calif.) at 1:20,000 dilution for an hour at room temperature. Following washing with TBST for 1 hour, the protein was detected by using the chemiluminescent detection system (Sigma-Aldrich)."}, "[8]": {"system": "RafC (Raf-1 kinase)", "conditions": "literature (ref. 11); cited from earlier work"}, "[9]": {"target": "T5, Arabidopsis TGD2, DsRed-TGD2C T9 (residues 221-250, SEQ ID NO:40) (Arabidopsis thaliana, UniProt Q9LTR2)", "T5 sequence (Q9LTR2 221-250)": "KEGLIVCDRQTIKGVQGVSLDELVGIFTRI", "test": "Liposome-association assay, TGD2C T9 (221-250)", "format": "binding", "procedure": "as §1, §2, §3"}, "[10]": {"conditions": "mixed PA/PC liposomes, FIGS. 5E and 5F"}}, "note": "Entries after “also recorded” stand apart in the source; their conditions may differ.", "data": [{"molecule": "CCCCCCCC/C=C\\CCCCCCCC(=O)OC[C@H](COP(=O)(O)O)OC(=O)CCCCCCC/C=C\\CCCCCCCC", "note": "[PA, phosphatidic acid]", "values": [{"measurement": "PtdOH binding activity", "setting": "[1]", "value": "did not require the central hydrophobic region of TGD4"}, {"measurement": "PA binding", "setting": "[2]", "value": "did not seem to affect PA binding"}, {"measurement": "PA binding", "setting": "[3]; PA liposomes, FIG. 4A", "value": "sufficient to mediate specific binding to PA"}, {"measurement": "cooperativity of PA binding", "setting": "[3]; mixed PA/PC liposomes, FIG. 5", "value": "loses positive cooperativity; also recorded: not cooperative"}, {"measurement": "residual PA binding activity", "setting": "[4]; PA liposomes", "value": "retains residual binding activity, albeit with significantly lower affinity"}, {"measurement": "Hill number, PA binding", "setting": "[4]; [10]", "value": 7.3}, {"measurement": "Kd, PA binding", "setting": "[4]; [10]", "value": 53.47, "unit": "mol %"}, {"measurement": "binding to PC or PA", "setting": "[5]", "value": "does not display binding"}, {"measurement": "PA binding", "setting": "[6]", "value": "significantly reduced the amount of interaction with PA-liposomes"}, {"measurement": "PA binding on membrane strip", "setting": "[7]", "value": "binds PA on the membrane strip, with apparent lower affinity"}, {"measurement": "RafC-PA association", "setting": "[8]", "value": 20, "unit": "mol % PA"}, {"measurement": "PA binding", "setting": "[9]", "value": "no interaction to PA was detected"}]}]}
